Source: paper PMC9823088, “The oral selective estrogen receptor degrader GDC-0810 (ARN-810) in postmenopausal women with hormone receptor-positive HER2-negative (HR + /HER2 −) advanced/metastatic breast cancer” (Breast Cancer Research and Treatment, 2022)

Assay: Safety: adverse events (NCI-CTCAE v4.0), DLT, MTD, RP2D
Assay type: in vivo
Procedure: AEs were assessed using the National Cancer Institute-Common Terminology Criteria for Adverse Events (NCI-CTCAE v4.0). […] The protocol-defined GDC-0810-specific AEs of special interest (AESI) which were non-serious adverse events that required expedited reporting to the sponsor, included DLTs occurring during the DLT assessment window, grade ≥ 2 vomiting/diarrhea, grade ≥ 3 nausea, grade ≥ 2 thromboembolic events, grade ≥ 2 vaginal or uterine hemorrhage, and grade ≥ 3 elevation of ALT or AST.
Analyses of safety, pharmacokinetics, anti-tumor activity, and data from the FES-PET imaging correlative studies were planned. Confirmatory inferential analyses and imputation for missing data were not planned due to the exploratory nature of this study. Descriptive statistics were used to summarize patient data. The number of patients to be enrolled was dependent upon the observed safety and pharmacokinetic profile during dose escalations. The safety- and efficacy-evaluable population included patients who received at least one dose of the study drug. Safety was assessed through summaries of DLTs, AEs, changes in select laboratory test results, vital signs, ECGs, and changes in endometrial thickness. Objective response (with confirmation) and clinical benefit rates (CBR) were derived per RECIST v1.1 and summarized by dose level and cohort. […]
polyps, endometrial cancer, endometrial hyperplasia, and other significant disorders); any […]
disease or chronic diarrhea, short bowel syndrome, or upper gastrointestinal surgery; known human immunodeficiency virus (HIV) infection; known clinically significant history of liver disease; major surgery within 4 weeks prior to enrollment; or radiation therapy within 2 weeks […]
There were phase-specific exclusion criteria as well. In phase Ib, cohort C1 excluded patients with a history of venous thromboembolic event requiring therapeutic anticoagulation or vaginal bleeding within 2 months prior to enrollment. In phase IIa, cohorts A1 and A2 excluded patients with >1 chemotherapy in the advanced/metastatic disease setting. In phase IIa, cohort B1 excluded patients with >1 prior AI in the advanced/metastatic disease setting or prior […]
In phase IIa, cohort B2 excluded patients with >1 prior AI or >1 prior chemotherapy in the advanced/metastatic disease setting.
Patients in phase Ia in dose escalation received oral doses of GDC-0810 during 28-day cycles given once daily (QD) or twice-daily (BID), with fasting and without fasting, and with a single dose given on day −7 leading into cycle 1. The starting dose in the first cohort was 100 mg per day based on preclinical studies. Dose escalation to 200 mg and by 200 mg increments in successive cohorts occurred in the absence of dose-limiting toxicities (DLTs), or conditionally in the presence of DLTs. A DLT was defined as any adverse event (AE) occurring during the DLT window deemed by the investigator or sponsor to be related to the study drug unless they were clearly related to disease progression or other cause; DLT incidences were evaluated from day […]
patients in a dose cohort experienced a DLT, 3 additional patients were assigned to that dose; dose escalation to the next level proceeded if DLTs were experienced by ≤1 patient out of 6. If ≥2 patients experienced DLTs at a given dose, a lower dose was to be declared the maximum […]
Phase Ib was a dose-escalation study of GDC-0810 starting at 400 mg QD, as […]
Phase IIa explored the recommended phase 2 dose (RP2D) from phase Ia. All patients received GDC-0810 600 mg under non-fasting conditions. Cohorts A1 and A2 enrolled patients with tumors harboring ESR1 mutations with no prior fulvestrant use in cohort A1 while prior fulvestrant use was allowed in cohort A2. Cohorts B1 and B2 enrolled patients whose disease had progressed and who may have had one or no AI therapy; there was no prior fulvestrant use in cohort B1 while prior fulvestrant use was allowed in cohort B2.
Patients in all three study phases continued treatment until unacceptable toxicity, disease

[1] = phase IIa B2, 600 mg QD, n = 19
[2] = phase Ia cohorts 1–9, 100–800-mg BID, 300–400-mg QD, n = 41
[3] = phase Ib C1, 400 mg QD + palbociclib, n = 4
[4] = phase Ib D1, ≤ 600 mg QD + LHRH agonist, n = 6
[5] = phase Ib and IIa (n=111), grade 2, cohort B1
[6] = phase Ib and IIa (n=111), grade 2, cohort D1
[7] = phase Ib and IIa (n=111), grade 3, cohort A1
[8] = phase Ib and IIa (n=111), grade 3, cohort B1
[9] = phase Ib and IIa (n=111), grade 5, cohort B1
[10] = phase Ib combination treatments

CC/C(=C(/c1ccc(/C=C/C(=O)O)cc1)c1ccc2[nH]ncc2c1)c1ccc(F)cc1Cl [GDC-0810]
Constipation, Grades 3–5 [1]: 0 n (%) | Constipation, all grades [1]: 4 (21) n (%) | Cough, Grades 3–5 [1]: 0 n (%) | Cough, all grades [1]: 4 (21) n (%) | Decreased appetite, Grades 3–5 [1]: 0 n (%) | Decreased appetite, all grades [1]: 2 (11) n (%) | Diarrhea, Grades 3–5 [1]: 0 n (%) | Diarrhea, all grades [1]: 11 (58) n (%) | Dyspepsia, Grades 3–5 [1]: 0 n (%) | Dyspepsia, all grades [1]: 2 (11) n (%) | Fatigue, Grades 3–5 [1]: 0 n (%) | Fatigue, all grades [1]: 7 (37) n (%) | Flatulence, Grades 3–5 [1]: 0 n (%) | Flatulence, all grades [1]: 0 n (%) | Nausea, Grades 3–5 [1]: 0 n (%) | Nausea, all grades [1]: 9 (47) n (%) | Vomiting, Grades 3–5 [1]: 0 n (%) | Vomiting, all grades [1]: 2 (11) n (%) | AEs leading to dose interruption (phase IIa expansion cohorts): 32 (32%) n (%) | AEs leading to dose reduction (phase IIa expansion cohorts): 4 (4%) n (%) | AEs leading to study drug withdrawal (phase IIa expansion cohorts): 3 (3%) n (%) | MTD (maximum tolerated dose) (phase Ia): not reached | time to onset for any grade diarrhea, range (phase Ia): 1 to 176 days | AST increased, Grades 3–5 [2]: 2 (5) n (%) | AST increased, all grades [2]: 17 (42) n (%) | Abdominal pain, Grades 3–5 [2]: 1 (2) n (%) | Abdominal pain, all grades [2]: 12 (29) n (%) | Anemia, Grades 3–5 [2]: 1 (2) n (%) | Anemia, all grades [2]: 18 (44) n (%) | Arthralgia, Grades 3–5 [2]: 0 n (%) | Arthralgia, all grades [2]: 12 (29) n (%) | Constipation, Grades 3–5 [2]: 0 n (%) | Constipation, all grades [2]: 17 (42) n (%) | Cough, Grades 3–5 [2]: 0 n (%) | Cough, all grades [2]: 13 (32) n (%) | Decreased appetite, Grades 3–5 [2]: 0 n (%) | Decreased appetite, all grades [2]: 13 (32) n (%) | Diarrhea, Grades 3–5 [2]: 0 n (%) | Diarrhea, all grades [2]: 32 (78) n (%) | Dyspepsia, Grades 3–5 [2]: 0 n (%) | Dyspepsia, all grades [2]: 11 (27) n (%) | Fatigue, Grades 3–5 [2]: 3 (7) n (%) | Fatigue, all grades [2]: 28 (68) n (%) | Flatulence, Grades 3–5 [2]: 0 n (%) | Flatulence, all grades [2]: 11 (27) n (%) | Nausea, Grades 3–5 [2]: 1 (2) n (%) | Nausea, all grades [2]: 28 (68) n (%) | Vomiting, Grades 3–5 [2]: 1 (2) n (%) | Vomiting, all grades [2]: 16 (39) n (%) | AEs leading to dose interruption (phase Ia dose escalation): 18 (44%) n (%) | AEs leading to dose reduction (phase Ia dose escalation): 5 (12%) n (%) | patients with ≥ 1 AE considered related to GDC-0810 (phase Ia dose escalation): 40 (98%) n (%) | mean time to onset for any grade diarrhea (phase Ia dose-escalation cohorts): 29 days | SAEs considered related to the study drug (phase Ia, grade 4 pulmonary embolism): one of the 20 | patients with grade ≥3 AEs related to GDC-0810 (phase Ia, grade 4 pulmonary embolism and two grade 3 diarrhea): 3 (7%) n (%) | deaths (phase Ib): no deaths | AST increased, Grades 3–5 [3]: 0 n (%) | AST increased, all grades [3]: 1 (25) n (%) | Abdominal pain, Grades 3–5 [3]: 0 n (%) | Abdominal pain, all grades [3]: 0 n (%) | Anemia, Grades 3–5 [3]: 0 n (%) | Anemia, all grades [3]: 2 (50) n (%) | Arthralgia, Grades 3–5 [3]: 0 n (%) | Arthralgia, all grades [3]: 1 (25) n (%) | Constipation, Grades 3–5 [3]: 0 n (%) | Constipation, all grades [3]: 0 n (%) | Cough, Grades 3–5 [3]: 0 n (%) | Cough, all grades [3]: 1 (25) n (%) | Decreased appetite, Grades 3–5 [3]: 0 n (%) | Decreased appetite, all grades [3]: 1 (25) n (%) | Diarrhea, Grades 3–5 [3]: 0 n (%) | Diarrhea, all grades [3]: 2 (50) n (%) | Dyspepsia, Grades 3–5 [3]: 0 n (%) | Dyspepsia, all grades [3]: 0 n (%) | Fatigue, Grades 3–5 [3]: 1 (25) n (%) | Fatigue, all grades [3]: 2 (50) n (%) | Flatulence, Grades 3–5 [3]: 0 n (%) | Flatulence, all grades [3]: 0 n (%) | Nausea, Grades 3–5 [3]: 0 n (%) | Nausea, all grades [3]: 3 (75) n (%) | Vomiting, Grades 3–5 [3]: 0 n (%) | Vomiting, all grades [3]: 0 n (%) | AST increased, Grades 3–5 [4]: 0 n (%) | AST increased, all grades [4]: 0 n (%) | Abdominal pain, Grades 3–5 [4]: 0 n (%) | Abdominal pain, all grades [4]: 2 (33) n (%) | Anemia, Grades 3–5 [4]: 0 n (%) | Anemia, all grades [4]: 0 n (%) | Arthralgia, Grades 3–5 [4]: 0 n (%) | Arthralgia, all grades [4]: 1 (17) n (%) | Constipation, Grades 3–5 [4]: 0 n (%) | Constipation, all grades [4]: 3 (50) n (%) | Cough, Grades 3–5 [4]: 0 n (%) | Cough, all grades [4]: 1 (17) n (%) | Decreased appetite, Grades 3–5 [4]: 0 n (%) | Decreased appetite, all grades [4]: 4 (67) n (%) | Diarrhea, Grades 3–5 [4]: 1 (17) n (%) | Diarrhea, all grades [4]: 6 (100) n (%) | Dyspepsia, Grades 3–5 [4]: 0 n (%) | Dyspepsia, all grades [4]: 3 (50) n (%) | Fatigue, Grades 3–5 [4]: 0 n (%) | Fatigue, all grades [4]: 3 (50) n (%) | Flatulence, Grades 3–5 [4]: 0 n (%) | Flatulence, all grades [4]: 1 (17) n (%) | Nausea, Grades 3–5 [4]: 0 n (%) | Nausea, all grades [4]: 4 (67) n (%) | Vomiting, Grades 3–5 [4]: 0 n (%) | Vomiting, all grades [4]: 3 (50) n (%) | SAE Urinary tract infection (phase Ib and IIa (n=111), grade 1, cohort A1): 1 n | SAE Hepatic hemorrhage (phase Ib and IIa (n=111), grade 2, cohort A1): 1 n | SAE Deep vein thrombosis [5]: 1 n | SAE Pneumonia [5]: 1 n | SAE Pleural effusion (phase Ib and IIa (n=111), grade 2, cohort C1): 1 n | SAE Abdominal pain [6]: 1 n | SAE Appendicitis perforated [6]: 1 n | SAE Pain in extremity [6]: 1 n | SAE Ascites [7]: 1 n | SAE Hypertension [7]: 1 n | SAE Vomiting (phase Ib and IIa (n=111), grade 3, cohort A1 (both)): 2 n | SAE Cardiac failure [8]: 1 n | SAE Diarrhea [8]: 1 n | SAE Dyspnea [8]: 1 n | SAE Endometrial hyperplasia [8]: 1 n | SAE Headache [8]: 1 n | SAE Hip fracture [8]: 1 n | SAE Hydronephrosis [8]: 1 n | SAE Seizure [8]: 1 n | SAE Syncope [8]: 1 n | SAE Tumor pain [8]: 1 n | SAE Atrial fibrillation (phase Ib and IIa (n=111), grade 3, cohort C1): 1 n | SAE Pneumonia (phase Ib and IIa (n=111), grade 3, cohorts A2, B1): 2 n | SAE Pulmonary embolism (phase Ib and IIa (n=111), grade 3, cohorts B1, D1): 2 n | SAE Hyponatremia (phase Ib and IIa (n=111), grade 4, cohort B1): 1 n | SAE Sepsis (phase Ib and IIa (n=111), grade 4, cohorts B1, B2): 2 n | SAE Acute kidney injury [9]: 1 n | SAE Breast cancer [9]: 2 n | AEs leading to dose interruption [10]: 5 (50%) n (%) | AEs leading to dose reduction [10]: none | AEs leading to study drug withdrawal [10]: none | vomiting, most common AEs (phases Ib/IIa): 31,28% | RP2D (recommended phase 2 dose) (taken with food / non-fasted): 600 mg QD
